{"source": "PubChem BioAssay (NCI)", "assay_in_all_cases": "growth of human tumour cells (NCI), 48 h", "key": {"[1]": {"test_system": "T-47D breast"}, "[2]": {"test_system": "OVCAR-3 ovarian"}, "[3]": {"test_system": "SW-620 colon"}, "[4]": {"test_system": "A498 renal"}, "[5]": {"test_system": "OVCAR-4 ovarian"}, "[6]": {"test_system": "RPMI-8226 leukemia"}, "[7]": {"test_system": "K-562 leukemia"}, "[8]": {"test_system": "MOLT-4 leukemia"}, "[9]": {"test_system": "SK-OV-3 ovarian"}, "[10]": {"test_system": "LOX IMVI melanoma"}, "[11]": {"test_system": "HCC-2998 colon"}, "[12]": {"test_system": "NCI-H460 lung"}, "[13]": {"test_system": "CCRF-CEM leukemia"}, "[14]": {"test_system": "RXF 393 renal"}, "[15]": {"test_system": "SNB-19 CNS"}, "[16]": {"test_system": "MDA-MB-435"}, "[17]": {"test_system": "SK-MEL-2 melanoma"}, "[18]": {"test_system": "NCI/ADR-RES ovarian"}, "[19]": {"test_system": "PC-3 prostate"}, "[20]": {"test_system": "OVCAR-8 ovarian"}, "[21]": {"test_system": "MALME-3M melanoma"}, "[22]": {"test_system": "UO-31 renal"}, "[23]": {"test_system": "SF-539 CNS"}, "[24]": {"test_system": "SR leukemia"}, "[25]": {"test_system": "786-0 renal"}, "[26]": {"test_system": "CAKI-1 renal"}, "[27]": {"test_system": "NCI-H522 lung"}, "[28]": {"test_system": "SN12C renal"}}, "note": "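Test compounds were applied to cells in 96-well plates for 48 hours at 5 doses. GI50 = concentration required for 50% inhibition of growth. At the TGI there is no net growth.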", "data": [{"smiles": "O=S(=O)(NC1CC2CCC1C2)c1ccc2c(c1)C(=NO)c1cc(S(=O)(=O)NC3CC4CCC3C4)ccc1-2", "note": "(stereo not given)", "values": [{"measurement": "GI50", "setting": "[1]", "value": 1.27, "unit": "µM"}, {"measurement": "TGI", "setting": "[1]", "value": 5.57, "unit": "µM"}, {"measurement": "GI50", "setting": "[2]", "value": 0.598, "unit": "µM"}, {"measurement": "TGI", "setting": "[2]", "value": "> 100", "unit": "µM"}, {"measurement": "GI50", "setting": "[3]", "value": 0.527, "unit": "µM"}, {"measurement": "TGI", "setting": "[3]", "value": 3.87, "unit": "µM"}, {"measurement": "GI50", "setting": "[4]", "value": "> 100", "unit": "µM"}, {"measurement": "TGI", "setting": "[4]", "value": "> 100", "unit": "µM"}, {"measurement": "GI50", "setting": "[5]", "value": 0.677, "unit": "µM"}, {"measurement": "TGI", "setting": "[5]", "value": 3.37, "unit": "µM"}, {"measurement": "GI50", "setting": "[6]", "value": 0.238, "unit": "µM"}, {"measurement": "TGI", "setting": "[6]", "value": "> 100", "unit": "µM"}, {"measurement": "GI50", "setting": "[7]", "value": 0.444, "unit": "µM"}, {"measurement": "TGI", "setting": "[7]", "value": "> 100", "unit": "µM"}, {"measurement": "GI50", "setting": "[8]", "value": 13.3, "unit": "µM"}, {"measurement": "TGI", "setting": "[8]", "value": "> 100", "unit": "µM"}, {"measurement": "GI50", "setting": "[9]", "value": 23.2, "unit": "µM"}, {"measurement": "TGI", "setting": "[9]", "value": "> 86.7", "unit": "µM"}, {"measurement": "GI50", "setting": "[10]", "value": 0.0182, "unit": "µM"}, {"measurement": "TGI", "setting": "[10]", "value": 0.0371, "unit": "µM"}, {"measurement": "GI50", "setting": "[11]", "value": 3.75, "unit": "µM"}, {"measurement": "TGI", "setting": "[11]", "value": "> 100", "unit": "µM"}, {"measurement": "GI50", "setting": "[12]", "value": 0.437, "unit": "µM"}, {"measurement": "TGI", "setting": "[12]", "value": 14.2, "unit": "µM"}, {"measurement": "GI50", "setting": "[13]", "value": 0.0257, "unit": "µM"}, {"measurement": "TGI", "setting": "[13]", "value": 0.0726, "unit": "µM"}, {"measurement": "GI50", "setting": "[14]", "value": 0.292, "unit": "µM"}, {"measurement": "TGI", "setting": "[14]", "value": 30.2, "unit": "µM"}, {"measurement": "GI50", "setting": "[15]", "value": 28.9, "unit": "µM"}, {"measurement": "TGI", "setting": "[15]", "value": "> 100", "unit": "µM"}, {"measurement": "GI50", "setting": "[16]", "value": 1.86, "unit": "µM"}, {"measurement": "TGI", "setting": "[16]", "value": "> 100", "unit": "µM"}, {"measurement": "GI50", "setting": "[17]", "value": 66.7, "unit": "µM"}, {"measurement": "TGI", "setting": "[17]", "value": "> 100", "unit": "µM"}, {"measurement": "GI50", "setting": "[18]", "value": 7, "unit": "µM"}, {"measurement": "TGI", "setting": "[18]", "value": "> 100", "unit": "µM"}, {"measurement": "GI50", "setting": "[19]", "value": 1.86, "unit": "µM"}, {"measurement": "TGI", "setting": "[19]", "value": 18.3, "unit": "µM"}, {"measurement": "GI50", "setting": "[20]", "value": 0.139, "unit": "µM"}, {"measurement": "TGI", "setting": "[20]", "value": 2.29, "unit": "µM"}, {"measurement": "GI50", "setting": "[21]", "value": 0.0438, "unit": "µM"}, {"measurement": "TGI", "setting": "[21]", "value": 0.173, "unit": "µM"}, {"measurement": "GI50", "setting": "[22]", "value": 0.0186, "unit": "µM"}, {"measurement": "TGI", "setting": "[22]", "value": 0.0376, "unit": "µM"}, {"measurement": "GI50", "setting": "[23]", "value": 0.182, "unit": "µM"}, {"measurement": "TGI", "setting": "[23]", "value": 0.396, "unit": "µM"}, {"measurement": "GI50", "setting": "[24]", "value": 0.0179, "unit": "µM"}, {"measurement": "TGI", "setting": "[24]", "value": 0.0563, "unit": "µM"}, {"measurement": "GI50", "setting": "[25]", "value": 0.179, "unit": "µM"}, {"measurement": "TGI", "setting": "[25]", "value": 0.326, "unit": "µM"}, {"measurement": "GI50", "setting": "[26]", "value": 0.158, "unit": "µM"}, {"measurement": "TGI", "setting": "[26]", "value": 0.344, "unit": "µM"}, {"measurement": "GI50", "setting": "[27]", "value": 0.16, "unit": "µM"}, {"measurement": "TGI", "setting": "[27]", "value": 1.02, "unit": "µM"}, {"measurement": "GI50", "setting": "[28]", "value": 0.883, "unit": "µM"}]}]}
